Measured values reported in ChEMBL document CHEMBL1201862, “PubChem BioAssay data set” (2004).
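A five-concentration, 48-hour dose response in 96-well plates underlies each endpoint, interpolated linearly between surrounding concentrations. GI50 marks 50% less growth.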 Active and inactive are the calls of the source. Cut-off read from the data, not from the text of the source: active = GI50 up to about 1.1 µM and inactive = higher.

Columns and labels:
Assay in all cases: NCI anticancer screen, dose series, 48 h
TK-10 = tested on: TK-10
NCI/ADR-RES = tested on: NCI/ADR-RES
UACC-257 = tested on: UACC-257
HL-60 = tested on: HL-60
CCRF-CEM = tested on: CCRF-CEM
NCI-H226 = tested on: NCI-H226
DU-145 = tested on: DU-145
MDA-N = tested on: MDA-N
SF-539 = tested on: SF-539
CAKI-1 = tested on: CAKI-1
HOP-92 = tested on: HOP-92
KM12 = tested on: KM12
SN12C = tested on: SN12C
MOLT-4 = tested on: MOLT-4
786-0 = tested on: 786-0
OVCAR-4 = tested on: OVCAR-4
SNB-75 = tested on: SNB-75
OVCAR-5 = tested on: OVCAR-5
EKVX = tested on: EKVX
HCT-116 = tested on: HCT-116
Malme-3M = tested on: Malme-3M
SW-620 = tested on: SW-620
SK-MEL-28 = tested on: SK-MEL-28
UACC-62 = tested on: UACC-62
BT-549 = tested on: BT-549
MDA-MB-231 = tested on: MDA-MB-231
LOX IMVI = tested on: LOX IMVI
HOP-62 = tested on: HOP-62
NCI-H23 = tested on: NCI-H23
OVCAR-3 = tested on: OVCAR-3
Hs-578T = tested on: Hs-578T
ACHN = tested on: ACHN
SK-OV-3 = tested on: SK-OV-3
PC-3 = tested on: PC-3
SNB-19 = tested on: SNB-19
U-251 = tested on: U-251
COLO 205 = tested on: COLO 205
SK-MEL-5 = tested on: SK-MEL-5
IGROV-1 = tested on: IGROV-1
NCI-H460 = tested on: NCI-H460
RXF 393 = tested on: RXF 393
MDA-MB-435 = tested on: MDA-MB-435
HCT-15 = tested on: HCT-15
SF-268 = tested on: SF-268
UO-31 = tested on: UO-31
M14 = tested on: M14
A549 = tested on: A549
NCI-H522 = tested on: NCI-H522
SF-295 = tested on: SF-295
SK-MEL-2 = tested on: SK-MEL-2
T47D = tested on: T47D
OVCAR-8 = tested on: OVCAR-8
K562 = tested on: K562
HT-29 = tested on: HT-29

O=S(=O)(/N=C(\NO)Nc1ccc(Cl)cc1)c1cccc2nsnc12
GI50 (TK-10): 55.7 µM (inactive) | GI50 (NCI/ADR-RES): 46 µM (inactive) | GI50 (UACC-257): 31 µM (inactive) | GI50 (HL-60): 13.4 µM (inactive) | GI50 (CCRF-CEM): 26.1 µM (inactive) | GI50 (NCI-H226): 81.1 µM (inactive) | GI50 (DU-145): 41.3 µM (inactive) | GI50 (MDA-N): 54.1 µM (inactive) | GI50 (SF-539): 59.3 µM (inactive) | GI50 (CAKI-1): 12.9 µM (inactive) | GI50 (HOP-92): 22.1 µM (inactive) | GI50 (KM12): 31 µM (inactive) | GI50 (SN12C): 21.9 µM (inactive) | GI50 (MOLT-4): 12.8 µM (inactive) | GI50 (786-0): 21.6 µM (inactive) | GI50 (OVCAR-4): 13.7 µM (inactive) | GI50 (SNB-75): 31.8 µM (inactive) | GI50 (OVCAR-5): 26.9 µM (inactive) | GI50 (EKVX): 26.2 µM (inactive) | GI50 (HCT-116): 32 µM (inactive) | GI50 (Malme-3M): 21.2 µM (inactive) | GI50 (SW-620): 31.8 µM (inactive) | GI50 (SK-MEL-28): 18.7 µM (inactive) | GI50 (UACC-62): 21.6 µM (inactive) | GI50 (BT-549): 28.6 µM (inactive) | GI50 (MDA-MB-231): 77.1 µM (inactive) | GI50 (LOX IMVI): 20.3 µM (inactive) | GI50 (HOP-62): > 100 µM (inactive) | GI50 (NCI-H23): 45.2 µM (inactive) | GI50 (OVCAR-3): 18.7 µM (inactive) | GI50 (Hs-578T): 29.2 µM (inactive) | GI50 (ACHN): 34.4 µM (inactive) | GI50 (SK-OV-3): 76.2 µM (inactive) | GI50 (PC-3): 30.3 µM (inactive) | GI50 (SNB-19): 94.4 µM (inactive) | GI50 (U-251): 31.6 µM (inactive) | GI50 (COLO 205): 32.4 µM (inactive) | GI50 (SK-MEL-5): 14.8 µM (inactive) | GI50 (IGROV-1): 28.1 µM (inactive) | GI50 (NCI-H460): 38.7 µM (inactive) | GI50 (RXF 393): 19.6 µM (inactive) | GI50 (MDA-MB-435): 23 µM (inactive) | GI50 (HCT-15): 18.3 µM | GI50 (SF-268): 34.4 µM (inactive) | GI50 (UO-31): 65.2 µM (inactive) | GI50 (M14): 35.4 µM (inactive) | GI50 (A549): 45.5 µM (inactive) | GI50 (NCI-H522): 11 µM (inactive) | GI50 (SF-295): 57.9 µM (inactive) | GI50 (SK-MEL-2): 16.4 µM (inactive) | GI50 (T47D): 48.1 µM (inactive) | GI50 (OVCAR-8): 34.3 µM (inactive) | GI50 (K562): 19.7 µM (inactive) | GI50 (HT-29): 39.2 µM (inactive)
